In ChEMBL document CHEMBL4020828, “Design and Syntheses of Highly Potent Teixobactin Analogues against Staphylococcus aureus, Methicillin-Resistant Staphylococcus aureus (MRSA), and Vancomycin-Resistant Enterococci (VRE) in Vitro and in Vivo” (J Med Chem, 2018):
In brackets after ≈: the same amount, converted by molar mass.

Assays:
Staphylococcus aureus [1] = test: Antibacterial activity against methicillin-resistant Staphylococcus aureus ATCC 33591 after 24 hrs; type: functional; details: ATCC 33591, 24 h
Enterococcus faecalis [2] = test: Antibacterial activity against vancomycin-resistant Enterococcus faecalis ATCC 29212 after 24 hrs; type: functional; details: ATCC 29212, 24 h
Bacillus cereus = test: Antibacterial activity against Bacillus cereus ATCC 11788 after 24 hrs; type: functional; details: ATCC 11788, 24 h
[3] = tested on: Staphylococcus saprophyticus; test: Antibacterial activity against Staphylococcus saprophyticus ATCC 49453 after 24 hrs; type: functional; details: ATCC 49453, 24 h
Staphylococcus aureus [4] = test: Antibacterial activity against Staphylococcus aureus 4299 after 24 hrs; type: functional; details: Staphylococcus aureus, 4299, 24 h
Staphylococcus aureus [5] = test: Antibacterial activity against methicillin-resistant Staphylococcus aureus ATCC 700699 after 24 hrs; type: functional; details: ATCC 700699, 24 h
[6] = tested on: Staphylococcus saprophyticus; test: Antibacterial activity against Staphylococcus saprophyticus ATCC BAA 750 after 24 hrs; type: functional; details: ATCC BAA 750, 24 h
[7] = tested on: Staphylococcus saprophyticus; test: Antibacterial activity against Staphylococcus saprophyticus ATCC 49907 after 24 hrs; type: functional; details: ATCC 49907, 24 h
Enterococcus faecalis [8] = test: Antibacterial activity against vancomycin-resistant Enterococcus faecalis isolate 1002 after 24 hrs; type: functional; details: isolate 1002, 24 h
[9] = tested on: Bacillus subtilis (Bacillus subtilis); test: Antibacterial activity against Bacillus subtilis ATCC 6633 after 24 hrs; details: ATCC 6633, 24 h
Staphylococcus aureus [10] = test: Antibacterial activity against methicillin-resistant Staphylococcus aureus isolate 42412 after 24 hrs; type: functional; details: isolate 42412, 24 h
Staphylococcus aureus [11] = test: Antibacterial activity against methicillin-resistant Staphylococcus aureus isolate 1003 after 24 hrs; type: functional; details: isolate 1003, 24 h
[12] = tested on: Staphylococcus saprophyticus; test: Antibacterial activity against Staphylococcus saprophyticus ATCC 15305 after 24 hrs; type: functional; details: ATCC 15305, 24 h
Enterococcus faecalis [13] = test: Antibacterial activity against vancomycin-resistant Enterococcus faecalis isolate 1004 after 24 hrs; type: functional; details: isolate 1004, 24 h
Enterococcus faecalis [14] = test: Antibacterial activity against vancomycin-resistant Enterococcus faecalis ATCC 700802 after 24 hrs; type: functional; details: ATCC 700802, 24 h
Enterococcus faecalis [15] = test: Antibacterial activity against vancomycin-resistant Enterococcus faecalis isolate 1008 after 24 hrs; type: functional; details: isolate 1008, 24 h
Staphylococcus aureus [16] = test: Antibacterial activity against methicillin-resistant Staphylococcus aureus isolate 21455 after 24 hrs; type: functional; details: isolate 21455, 24 h
Enterococcus faecalis [17] = test: Antibacterial activity against vancomycin-resistant Enterococcus faecalis isolate 1001 after 24 hrs; type: functional; details: isolate 1001, 24 h
Staphylococcus aureus [18] = test: Antibacterial activity against Staphylococcus aureus ATCC 29213 after 24 hrs; type: functional; details: ATCC 29213, 24 h
[19] = tested on: Staphylococcus epidermidis; test: Antibacterial activity against Staphylococcus epidermidis 12228 after 24 hrs; type: functional; details: Staphylococcus epidermidis, 12228, 24 h
Staphylococcus aureus [20] = test: Antibacterial activity against methicillin-resistant Staphylococcus aureus after 24 hrs; type: functional
Staphylococcus aureus [21] = test: Antibacterial activity against methicillin-sensitive Staphylococcus aureus after 24 hrs; type: functional

Compound | MIC (Staphylococcus aureus [1]) [mg/L] | MIC (Enterococcus faecalis [2]) [mg/L] | MIC (Bacillus cereus) [mg/L] | MIC [3] [mg/L] | MIC (Staphylococcus aureus [4]) [mg/L] | MIC (Staphylococcus aureus [5]) [mg/L] | MIC [6] [mg/L] | MIC [7] [mg/L] | MIC (Enterococcus faecalis [8]) [mg/L] | MIC [9] [mg/L] | MIC (Staphylococcus aureus [10]) [mg/L] | MIC (Staphylococcus aureus [11]) [mg/L] | MIC [12] [mg/L] | MIC (Enterococcus faecalis [13]) [mg/L] | MIC (Enterococcus faecalis [14]) [mg/L] | MIC (Enterococcus faecalis [15]) [mg/L] | MIC (Staphylococcus aureus [16]) [mg/L] | MIC (Enterococcus faecalis [17]) [mg/L] | MIC (Staphylococcus aureus [18]) [mg/L] | MIC [19] [mg/L] | further results
CC[C@@H](C)[C@@H](NC(=O)[C@@H](CCCNC(=N)N)NC(=O)[C@H](CO)NC(=O)[C@@H](NC(=O)[C@@H](Cc1ccccc1)NC)[C@@H](C)CC)C(=O)N[C@H](C(=O)N[C@@H](CO)C(=O)N[C@H]1C(=O)N[C@@H](C)C(=O)N[C@@H]([C@@H](C)CC)C(=O)N[C@@H]([C@@H](C)CC)C(=O)O[C@H]1C)[C@@H](C)CC | 0.125 (≈ 0.102 µM) | 0.25 (≈ 0.203 µM) | < 0.0625 | < 0.0625 | < 0.0625 | 0.25 (≈ 0.203 µM) | < 0.0625 | < 0.0625 | 1 (≈ 0.813 µM) | < 0.0625 | < 0.0625 | < 0.0625 | < 0.0625 | 0.5 (≈ 0.407 µM) | 0.25 (≈ 0.203 µM) | 0.5 (≈ 0.407 µM) | 0.0312 (≈ 0.0254 µM) | 0.5 (≈ 0.407 µM) | 0.0625 (≈ 0.0508 µM) | < 0.0625 | –
CC[C@@H](C)[C@@H](NC(=O)[C@@H](CCC(N)=O)NC(=O)[C@H](CO)NC(=O)[C@@H](NC(=O)[C@@H](Cc1ccccc1)NC)[C@@H](C)CC)C(=O)N[C@H](C(=O)N[C@@H](CO)C(=O)N[C@H]1C(=O)N[C@@H](C)C(=O)N[C@@H](Cc2ccccc2)C(=O)N[C@@H]([C@@H](C)CC)C(=O)O[C@H]1C)[C@@H](C)CC | – | – | – | – | – | – | – | – | – | – | – | – | – | – | – | – | – | – | – | – | MIC (Staphylococcus aureus [20]): 2 mg/L (≈ 1.62 µM)
CC[C@@H](C)[C@@H](NC(=O)[C@@H](CCC(N)=O)NC(=O)[C@H](CO)NC(=O)[C@@H](NC(=O)[C@@H](Cc1ccccc1)NC)[C@@H](C)CC)C(=O)N[C@H](C(=O)N[C@@H](CO)C(=O)N[C@H]1C(=O)N[C@@H](CCCNC(=N)N)C(=O)N[C@@H]([C@@H](C)CC)C(=O)N[C@@H]([C@@H](C)CC)C(=O)O[C@H]1C)[C@@H](C)CC | 0.25 (≈ 0.194 µM) | 1 (≈ 0.777 µM) | 0.5 (≈ 0.389 µM) | < 0.0625 | 1 (≈ 0.777 µM) | 1 (≈ 0.777 µM) | < 0.0625 | < 0.0625 | 1 (≈ 0.777 µM) | 0.125 (≈ 0.0972 µM) | 0.125 (≈ 0.0972 µM) | 0.5 (≈ 0.389 µM) | < 0.0625 | 1 (≈ 0.777 µM) | 1 (≈ 0.777 µM) | 1 (≈ 0.777 µM) | 0.5 (≈ 0.389 µM) | 1 (≈ 0.777 µM) | 1 (≈ 0.777 µM) | < 0.0625 | –
CC[C@@H](C)[C@@H](NC(=O)[C@@H](CCC(N)=O)NC(=O)[C@H](CCCNC(=N)N)NC(=O)[C@@H](NC(=O)[C@@H](Cc1ccccc1)NC)[C@@H](C)CC)C(=O)N[C@H](C(=O)N[C@@H](CO)C(=O)N[C@H]1C(=O)N[C@@H](C)C(=O)N[C@@H]([C@@H](C)CC)C(=O)N[C@@H]([C@@H](C)CC)C(=O)O[C@H]1C)[C@@H](C)CC | 0.25 (≈ 0.197 µM) | 1 (≈ 0.787 µM) | 0.125 (≈ 0.0984 µM) | < 0.0625 | 0.125 (≈ 0.0984 µM) | 1 (≈ 0.787 µM) | < 0.0625 | < 0.0625 | 1 (≈ 0.787 µM) | < 0.0625 | 0.125 (≈ 0.0984 µM) | 0.125 (≈ 0.0984 µM) | < 0.0625 | 1 (≈ 0.787 µM) | 1 (≈ 0.787 µM) | 1 (≈ 0.787 µM) | 0.25 (≈ 0.197 µM) | 1 (≈ 0.787 µM) | 0.5 (≈ 0.394 µM) | < 0.0625 | –
CC[C@@H](C)[C@@H](NC(=O)[C@@H](CCC(N)=O)NC(=O)[C@H](CO)NC(=O)[C@@H](NC(=O)[C@@H](Cc1ccccc1)NC)[C@@H](C)CC)C(=O)N[C@H](C(=O)N[C@@H](CO)C(=O)N[C@H]1C(=O)N[C@@H](C)C(=O)N[C@@H](C)C(=O)N[C@@H]([C@@H](C)CC)C(=O)O[C@H]1C)[C@@H](C)CC | – | – | – | – | – | – | – | – | – | – | – | – | – | – | – | – | – | – | – | – | MIC (Staphylococcus aureus [20]): 1 to 2 mg/L (≈ 0.863 to 1.73 µM); MIC (Staphylococcus aureus [21]): 1 mg/L (≈ 0.863 µM)
